Data on 13 compounds can be found in ChEMBL document CHEMBL1141930, “N-methylsansalvamide a peptide analogues. Potent new antitumor agents” (J Med Chem, 2005).

The subject of test [1] is WM-115. The experiment in a line: Concentration at which the compound exibit good activity WM-115 human melanoma cells. Format: functional, cell-based.
Test [2] concerns Cancer cell lines. The experiment in a line: Inhibitory activity against S2-013 human pancreatic cancer cells; demonstarted good activity. Format: functional, cell-based.
The subject of test [3] is Cancer cell lines. The experiment in a line: Inhibitory activity against AsPC-1 human pancreatic cancer cells; demonstarted good activity. Format: functional, cell-based.
Test [4] deals with MDA-MB-231. The experiment in a line: Inhibitory activity against MDA-MB-231 human […] cancer cells; demonstarted good activity. In kind it is functional, cell-based.
Test [5] has as its system PC-3. The experiment in a line: Inhibitory activity against PC-3 human prostate cancer cells; demonstarted good activity. Format: functional, cell-based.
For test [6], the system named is MDA-MB-231. The experiment in a line: Effect of N-methylation in MDA-MB-231 human […] cancer cells; exibit less potency. In kind it is functional, cell-based.
Test [7] has as its system MDA-MB-231. The experiment in a line: Inhibitory activity against MDA-MB-231 cells; exhibited moderate activity. In kind it is functional, cell-based. The following applies: Homo sapiens.
Test [8] relates to PC-3. The experiment in a line: Concentration at which the compound exibit more potency against PC-3 human prostate cancer cells. Format: functional, cell-based.
The test system of test [9] is Cancer cell lines. The experiment in a line: Potency exhibited by the compound against well-differentiated S2-013 human pancreatic cancer cell line; much more potent. Format: functional, cell-based.
In test [10] the test system is MDA-MB-231. The experiment in a line: Concentration at which the compound exibit more potency against MDA-MB-231 human […] cancer cells. In kind it is functional, cell-based.
For test [11], the system named is PC-3. The experiment in a line: Effective concentration against PC-3 human prostate cancer cells. In kind it is functional, cell-based.
Test [12] concerns PC-3. The experiment in a line: Effect of N-methylation in PC-3 human prostate cancer cells. Format: functional, cell-based.
Test [13] deals with MDA-MB-231. The experiment in a line: Inhibitory activity against MDA-MB-231 cells; demonstarted high activity. In kind it is functional, cell-based. The following applies: Homo sapiens.
Test [14] concerns WM-115. The experiment in a line: Potency against human WM-115 cells; exhibited average potency. Format: functional, cell-based.
Test [15] concerns PC-3. The experiment in a line: Effect of N-methylation in PC-3 human prostate cancer cells; exhibited lowest activity. In kind it is functional, cell-based.
A short description of test [16]: Mean inhibitory concentration against cancer cell lines. Format: functional, cell-based, Homo sapiens.
The test system of test [17] is MDA-MB-231. The experiment in a line: Effect of N-methylation in MDA-MB-231 human […] cancer cells; exibit high potency. Format: functional, cell-based.
Test [18] has as its system PC-3. The experiment in a line: Effect of N-methylation in PC-3 human prostate cancer cells; exhibited more potency. In kind it is functional, cell-based.
For test [19], the system named is Cancer cell lines. The experiment in a line: Concentration at which the compound exibit more potency agains AsPC-1 human pancreatic cancer cells. Format: functional, cell-based.

As a reminder, the EC50 is the midpoint of the concentration-response curve. Usually IC50 stands for the point on the concentration scale where inhibition reaches its midpoint.

Values after ≈ are worked out from the molar mass of the structure shown. Active and inactive are the calls of the source. No cut-off for these calls is given here. Where a SMILES comes first, the peptide text is derived from it. [ ]: non-standard residue; d: D form. NMePhe(4-Br) = CN[C@@H](Cc1ccc(Br)cc1)C(=O)O; Phe(4-Br) = N[C@@H](Cc1ccc(Br)cc1)C(=O)O; NMeF = CN[C@@H](Cc1ccccc1)C(=O)O; Hica(2S) = CC(C)C[C@H](O)C(=O)O; NMeL = CN[C@@H](CC(C)C)C(=O)O; NMeV = CN[C@H](C(=O)O)C(C)C

Turning to `CC(C)C[C@@H]1NC(=O)[C@H](CC(C)C)NC(=O)[C@H](Cc2ccc(Br)cc2)N(C)C(=O)[C@H](CC(C)C)NC(=O)[C@H](C(C)C)NC1=O` (cyclo([NMePhe(4-Br)]LLVL)), in [1], the Concentration was determined as 10 µM. In addition, the outcome in [2], in [3], in [4] and in test [5] was Active.

As for `CC(C)C[C@@H]1NC(=O)[C@H](C(C)C)NC(=O)[C@H](CC(C)C)N(C)C(=O)[C@H](CC(C)C)NC(=O)[C@H](Cc2ccccc2)NC1=O` (cyclo(FL[NMeL]VL)), the Activity entry in test [6] is “Potent”.

On to `CC(C)C[C@@H]1NC(=O)[C@H](Cc2ccccc2)NC(=O)[C@H](CC(C)C)NC(=O)[C@H](C(C)C)N(C)C(=O)[C@H](CC(C)C)NC1=O` (cyclo(FLL[NMeV]L)), for which, in [7], the outcome was Active.

Consider `CC(C)C[C@@H]1NC(=O)[C@H](C(C)C)NC(=O)[C@H](CC(C)C)NC(=O)[C@H](CC(C)C)N(C)C(=O)[C@H](Cc2ccc(Br)cc2)NC1=O` (cyclo([Phe(4-Br)][NMeL]LVL)), for which the Concentration in [8] and in test [10] was 10 µM throughout. Also, the outcome in test [3] and in test [9] was Active. In [11], this compound gave an EC50 of 7.5 µM.

As to `CC(C)C[C@@H]1NC(=O)[C@H](C(C)C)NC(=O)[C@H](CC(C)C)N(C)C(=O)[C@H](CC(C)C)NC(=O)[C@H](Cc2ccc(Br)cc2)NC1=O` (cyclo([Phe(4-Br)]L[NMeL]VL)), the Activity result in [12] was “Not Very Active”; in test [6], “Potent”. Further, the outcome in test [13] was Active.

Regarding `CC(C)C[C@@H]1NC(=O)[C@H](Cc2ccccc2)NC(=O)[C@H](CC(C)C)NC(=O)[C@H](C(C)C)NC(=O)[C@H](CC(C)C)NC1=O` (cyclo(FLLVL)), the Activity result in [6] is “Potent”; in test [15], “Not Very Active”. In [14], the outcome was Active.

In [16], `CC(C)C[C@@H]1NC(=O)[C@H](C(C)C)NC(=O)[C@H](CC(C)C)OC(=O)[C@H](CC(C)C)NC(=O)[C@H](Cc2ccccc2)NC1=O` (cyclo(FL[Hica(2S)]VL)) had an IC50 of 27.4 µg/mL (≈ 46.7 µM).

In the case of `CC(C)C[C@@H]1NC(=O)[C@H](C(C)C)NC(=O)[C@H](CC(C)C)NC(=O)[C@H](CC(C)C)N(C)C(=O)[C@H](Cc2ccccc2)NC1=O` (cyclo(F[NMeL]LVL)), the figures for the Activity result in test [12] and in [6] were “Not Very Active” and “Potent”, respectively.

Turning to `CC(C)C[C@@H]1NC(=O)[C@H](Cc2ccc(Br)cc2)NC(=O)[C@H](CC(C)C)NC(=O)[C@H](C(C)C)N(C)C(=O)[C@H](CC(C)C)NC1=O` (cyclo([Phe(4-Br)]LL[NMeV]L)), the result in test [7] was Active.

As to `CC(C)C[C@@H]1NC(=O)[C@H](CC(C)C)NC(=O)[C@H](Cc2ccccc2)N(C)C(=O)[C@H](CC(C)C)NC(=O)[C@H](C(C)C)NC1=O` (cyclo([NMeF]LLVL)), the Activity entry in test [12] was “Not Very Active”; in [6], “Potent”.

In the case of `CC(C)C[C@@H]1NC(=O)[C@H](Cc2ccccc2)NC(=O)[C@H](CC(C)C)N(C)C(=O)[C@H](C(C)C)NC(=O)[C@H](CC(C)C)NC1=O` (cyclo(FLLV[NMeL])), the result in test [7] was Active.

As for `CC(C)C[C@@H]1NC(=O)[C@H](Cc2ccc(Br)cc2)NC(=O)[C@H](CC(C)C)NC(=O)[C@H](C(C)C)NC(=O)[C@H](CC(C)C)NC1=O` (cyclo([Phe(4-Br)]LLVL)), the Activity result in [17] was “Potent”; in test [18] it was “More potent”.

As to `CC(C)C[C@@H]1NC(=O)[C@H](Cc2ccc(Br)cc2)NC(=O)[C@H](CC(C)C)N(C)C(=O)[C@H](C(C)C)NC(=O)[C@H](CC(C)C)NC1=O` (cyclo([Phe(4-Br)]LLV[NMeL])), the Concentration in test [1], in test [19], in test [8] and in test [10] was 10 µM each time. In addition, the outcome in test [2] was Active.
